Source: publication PMC5372986, “Diminished Antimicrobial Peptide and Antifungal Antibiotic Activities against Candida albicans in Denture Adhesive” (Antibiotics, 2017)
Read-outs that look alike come from different tables or passages of the source. Bridge positions count the residues as written; N and C are the ends. Ends that are not written are not given here. Peptide text beside a SMILES is read from it.

Key:
C. albicans ATCC 64124 = test: microbe, parasite or virus in culture; conditions: for Activity in gels with 1.0% denture adhesive compared with gels without / Minimal inhibitory concentration (MIC): C. albicans ATCC 64124; for Activity in gels with 1.0% denture adhesive compared with gels without: result in words, Tukey HSD, 0.05 level; for MIC: Candida albicans
Procedure: (§1) C. albicans strains ATCC 64124 and HMV4C were used and cultivated as previously described. Their identities were verified (State Hygienic Laboratory, University of Iowa Research Park, Coralville, IA, USA). These cultures were adjusted to contain 1.2–3.7 × 10^6 CFU/mL in Roswell Park Memorial Institute (RPMI) 1640 medium.
(§2) The denture adhesive used was a standard, over-the-counter gel containing poly sodium-calcium mixed partial salt, petrolatum, cellulose gum, and mineral oil and was prepared as previously described. Denture adhesive was too viscous to use directly and was diluted to 1.0% for incorporation into the radial diffusion assay.
(§3) Each agent was reconstituted in distilled water with 0.01% acetic acid for resuspension to keep the agent in solution. Two-fold dilutions were prepared.
(§4) The radial diffusion assays were performed as described with the following unique modifications. Underlay agarose gels were prepared with and without 1.0% denture adhesive in square petri dishes (Electron Microscopy Sciences, Hatfield, PA, USA). Plates without 1.0% adhesive contained 12.5 mL of 10.0 mM sodium phosphate buffer adjusted to pH 7.4, 12.5 mL of 2.0% agarose (Agarose LE, Roche Diagnostics Corporation, Indianapolis, IN, USA) in 10.0 mM sodium phosphate adjusted to pH 7.4, and 1.0 mL of C. albicans culture per plate. Plates with 1.0% adhesive contained 12.5 mL of 2.0% dental adhesive in 10.0 mM sodium phosphate adjusted to pH 7.4, 12.5 mL 2.0% agarose (Agarose LE, Roche Diagnostics Corporation, Indianapolis, IN, USA) in 10.0 mM sodium phosphate adjusted to pH 7.4, and 1.0 mL of C. albicans culture. Wells of 2.0 mm in diameter were created and filled with 5.0 µL of AMP or antifungal antibiotic dilution (n = three replications per test). A blank of 0.01% acetic acid in distilled water was also included. The plates were incubated at 37 °C for 3 h. After incubation, 10.0 mL of overlay containing 1.0% agarose in 10.0 mM phosphate buffer with 6.0% RPMI 1640, was added to each plate. The plates were incubated at 37 °C overnight. At 24 h, antimicrobial activity was determined by measuring the zone of clearance around the center of each well and extrapolating MIC as described.
(§5) When MICs fell outside the range of the assay, we considered the MIC to be equal to the highest concentration used in the assay. […] One-way fixed-effects ANOVA models were fit to the µM MIC values. Pairwise group comparisons were conducted using the method of Tukey’s Honest Significant Differences (HSD). A 0.05 level was used to determine statistically significant differences. All analyses were conducted using JMP (Version 10.0, SAS, Cary, NC, USA).

C. albicans HMV4C = test: microbe, parasite or virus in culture; conditions: for Activity in gels with 1.0% denture adhesive compared with gels without / Minimal inhibitory concentration (MIC): C. albicans HMV4C; for Activity in gels with 1.0% denture adhesive compared with gels without: result in words, Tukey HSD, 0.05 level; for MIC: Candida albicans, HMV4C
Procedure: as §1, §2, §3, §4, §5

Candida albicans = conditions: broth microdilution, p < 0.05; cited from earlier work
Excerpt: Candida species infections can cause complications for individuals with dentures, such as denture stomatitis.

[1] = in both gels with or without 1.0% denture adhesive
[2] = No Adhesive, radial diffusion, mean (standard error, n = 3)
[3] = Adhesive (1.0% denture adhesive in gel), radial diffusion, mean (standard error, n = 3)
[4] = Adhesive (1.0% denture adhesive in gel), radial diffusion, pH 7.4, 37 °C, read at 24 h, mean (standard error, n = 3)

Row | Minimal inhibitory concentration (MIC) (C. albicans ATCC 64124; [1]) [µM] | Minimal inhibitory concentration (MIC) (C. albicans HMV4C; [2]) | Compound | Activity in gels with 1.0% denture adhesive compared with gels without (C. albicans ATCC 64124; radial diffusion) | Activity in gels with 1.0% denture adhesive compared with gels without (C. albicans HMV4C; radial diffusion) | Loss of antimicrobial activity in 1.0% denture adhesive (Candida albicans) | also measured
1 | – | – | C[C@@H]1[C@H](O)[C@@H](C)/C=C/C=C/C=C/C=C/C=C/C=C/C=C/[C@H](O[C@@H]2O[C@H](C)[C@@H](O)[C@H](N)[C@@H]2O)C[C@@H]2O[C@](O)(C[C@@H](O)C[C@@H](O)[C@H](O)CC[C@@H](O)C[C@@H](O)CC(=O)O[C@H]1C)C[C@H](O)[C@H]2C(=O)O [Amphotericin B] | same | same | did not | MIC (C. albicans ATCC 64124; ATCC64124, 24 h, pH 7.4, read-out: Minimal inhibitory concentration (MIC), C. albicans ATCC 64124, Adhesive (1.0% denture adhesive in gel), radial diffusion, pH 7.4, 37 °C, read at 24 h, mean (standard error, n = 3)): 16.6 µg/mL; MIC (C. albicans ATCC 64124; ATCC64124, 24 h, pH 7.4, read-out: Minimal inhibitory concentration (MIC), C. albicans ATCC 64124, No Adhesive, radial diffusion, pH 7.4, 37 °C, read at 24 h, mean (standard error, n = 3)): 6 µg/mL; MIC (C. albicans ATCC 64124; ATCC64124, read-out: Minimal inhibitory concentration (MIC), C. albicans ATCC 64124, Adhesive (1.0% denture adhesive in gel), radial diffusion, mean (standard error, n = 3)): 18 µM; MIC (C. albicans ATCC 64124; ATCC64124, read-out: Minimal inhibitory concentration (MIC), C. albicans ATCC 64124, No Adhesive, radial diffusion, mean (standard error, n = 3)): 6.5 µM; MIC (C. albicans HMV4C; 24 h, pH 7.4, read-out: Minimal inhibitory concentration (MIC), C. albicans HMV4C, Adhesive (1.0% denture adhesive in gel), radial diffusion, pH 7.4, 37 °C, read at 24 h, mean (standard error, n = 3)): 6.2 µg/mL; MIC (C. albicans HMV4C; 24 h, pH 7.4, read-out: Minimal inhibitory concentration (MIC), C. albicans HMV4C, No Adhesive, radial diffusion, agarose in 10.0 mM sodium phosphate pH 7.4, 37 °C, read at 24 h, mean (standard error, n = 3)): 5.4 µg/mL; MIC (C. albicans HMV4C; read-out: Minimal inhibitory concentration (MIC), C. albicans HMV4C, Adhesive (1.0% denture adhesive in gel), radial diffusion, mean (standard error, n = 3)): 6.7 µM; MIC (C. albicans HMV4C; read-out: Minimal inhibitory concentration (MIC), C. albicans HMV4C, No Adhesive, radial diffusion, mean (standard error, n = 3)): 5.8 µM
2 | > 254.1 | >254.1 (0.0) µM | CC[C@H](C)[C@@H]1NC(=O)[C@H](CCCCN)NC(=O)[C@H]([C@@H](C)O)NC(=O)[C@H](Cc2ccccc2)NC(=O)[C@H]([C@@H](C)CC)NC(=O)[C@@H]2CCCN2C(=O)[C@@H]2CSSC[C@@H](C(=O)N[C@@H](CCCCN)C(=O)O)NC(=O)[C@@H]3CSSC[C@H](NC(=O)[C@H](CC(N)=O)NC(=O)[C@H](Cc4ccc(O)cc4)NC(=O)[C@H](Cc4c[nH]cn4)NC(=O)[C@@H](N)CC(=O)O)C(=O)N[C@@H](C(C)C)C(=O)N[C@@H](CO)C(=O)N[C@@H](CO)C(=O)NCC(=O)NCC(=O)N[C@@H](CCC(N)=O)C(=O)N[C@@H](CSSC[C@H](NC(=O)[C@H]([C@@H](C)O)NC(=O)CNC(=O)[C@H](CCC(N)=O)NC1=O)C(=O)N[C@@H](Cc1ccc(O)cc1)C(=O)N[C@@H](CCCNC(=N)N)C(=O)NCC(=O)N[C@@H](CCCCN)C(=O)N[C@@H](C)C(=O)N[C@@H](CCCCN)C(=O)N3)C(=O)N[C@@H](CC(C)C)C(=O)N[C@@H](Cc1ccc(O)cc1)C(=O)N[C@@H](CO)C(=O)N[C@@H](C)C(=O)N2 [HBD-1] (H-DHYNCVSSGGQCLYSACPIFTKIQGTCYRGKAKCCK-OH; disulfide 5-34, 12-27, 17-35 (inferred); N-terminus and C-terminus assumed) | – | – | – | Minimal inhibitory concentration (MIC) (C. albicans HMV4C; [1]): > 254.1 µM
3 | > 329.0 | – | C[C@H](NC(=O)[C@H](Cc1c[nH]cn1)NC(=O)[C@H](CO)NC(=O)[C@@H](N)CC(=O)O)C(=O)N[C@@H](CCCCN)C(=O)N[C@@H](CCCNC(=N)N)C(=O)N[C@@H](Cc1c[nH]cn1)C(=O)N[C@@H](Cc1c[nH]cn1)C(=O)NCC(=O)N[C@@H](Cc1ccc(O)cc1)C(=O)N[C@@H](CCCCN)C(=O)N[C@@H](CCCNC(=N)N)C(=O)N[C@@H](CCCCN)C(=O)N[C@@H](Cc1ccccc1)C(=O)N[C@@H](Cc1c[nH]cn1)C(=O)N[C@@H](CCC(=O)O)C(=O)N[C@@H](CCCCN)C(=O)N[C@@H](Cc1c[nH]cn1)C(=O)N[C@@H](Cc1c[nH]cn1)C(=O)N[C@@H](CO)C(=O)N[C@@H](Cc1c[nH]cn1)C(=O)N[C@@H](CCCNC(=N)N)C(=O)NCC(=O)N[C@@H](Cc1ccc(O)cc1)C(=O)O [Histatin 5] | – | diminished activity | – | –
4 | – | – | CCCCCCCCCCCCCCC[C@@H](O)[C@@H](N)CO [dihydrosphingosine] | – | – | lost antimicrobial activity | –
5 | – | – | CCCCCCCCCCCCCC[C@@H](O)[C@@H](O)[C@@H](N)CO [phytosphingosine] | – | – | lost antimicrobial activity | –
6 | – | – | CCCCCCCCCCCCC/C=C/[C@@H](O)[C@@H](N)CO [sphingosine] | – | – | lost antimicrobial activity | –
7 | – | – | GIGDPVTCLKSGAICHPVFCPRRYKQIGTCGLPGTKCCKKP (disulfide 8-37, 15-30, 20-38 (inferred)) [HBD-2] | diminished activity | diminished activity | – | –
8 | – | – | GIINTLQKYYCRVRGGRCAVLSCLPKEEQIGKCSTRGRKCCRRKK (disulfide 11-40, 18-33, 23-41 (inferred)) [HBD-3] | diminished activity | diminished activity | – | –
9 | – | 2.2 (0.0) µM | IP-10: recombinant human CXCL10 (Peprotech) | diminished activity | diminished activity | – | Minimal inhibitory concentration (MIC) (C. albicans ATCC 64124; [4]): >1000.0 (0.0) µg/mL; Minimal inhibitory concentration (MIC) (C. albicans ATCC 64124; [3]): >115.7 (0.0) µM; Minimal inhibitory concentration (MIC) (C. albicans ATCC 64124; No Adhesive, radial diffusion, pH 7.4, 37 °C, read at 24 h, mean (standard error, n = 3)): 103.6 (3.2) µg/mL; Minimal inhibitory concentration (MIC) (C. albicans ATCC 64124; [2]): 12.0 (0.4) µM; Minimal inhibitory concentration (MIC) (C. albicans HMV4C; [4]): >200.0 (0.0) µg/mL; Minimal inhibitory concentration (MIC) (C. albicans HMV4C; [3]): >23.1 (0.0) µM; Minimal inhibitory concentration (MIC) (C. albicans HMV4C; No Adhesive, radial diffusion, agarose in 10.0 mM sodium phosphate pH 7.4, 37 °C, read at 24 h, mean (standard error, n = 3)): 18.6 (0.3) µg/mL

Row | Compound | Minimal inhibitory concentration (MIC) (C. albicans ATCC 64124; [1]) [µM] | Minimal inhibitory concentration (MIC) (C. albicans HMV4C; [2]) | Activity in gels with 1.0% denture adhesive compared with gels without (C. albicans ATCC 64124; radial diffusion) | Activity in gels with 1.0% denture adhesive compared with gels without (C. albicans HMV4C; radial diffusion) | Loss of antimicrobial activity in 1.0% denture adhesive (Candida albicans) | also measured
10 | CC[C@H](C)[C@H](NC(=O)[C@H](CCCCN)NC(=O)[C@H](CCC(=O)O)NC(=O)[C@H](CCCCN)NC(=O)[C@H](CO)NC(=O)[C@H](CCCCN)NC(=O)[C@H](CCCNC(=N)N)NC(=O)[C@H](Cc1ccccc1)NC(=O)[C@H](Cc1ccccc1)NC(=O)[C@H](CC(=O)O)NC(=O)CNC(=O)[C@H](CC(C)C)NC(=O)[C@@H](N)CC(C)C)C(=O)NCC(=O)N[C@@H](CCCCN)C(=O)N[C@@H](CCC(=O)O)C(=O)N[C@@H](Cc1ccccc1)C(=O)N[C@@H](CCCCN)C(=O)N[C@@H](CCCNC(=N)N)C(=O)N[C@H](C(=O)N[C@H](C(=O)N[C@@H](CCC(N)=O)C(=O)N[C@@H](CCCNC(=N)N)C(=O)N[C@H](C(=O)N[C@@H](CCCCN)C(=O)N[C@@H](CC(=O)O)C(=O)N[C@@H](Cc1ccccc1)C(=O)N[C@@H](CC(C)C)C(=O)N[C@@H](CCCNC(=N)N)C(=O)N[C@@H](CC(N)=O)C(=O)N[C@@H](CC(C)C)C(=O)N[C@H](C(=O)N1CCC[C@H]1C(=O)N[C@@H](CCCNC(=N)N)C(=O)N[C@H](C(=O)N[C@@H](CCC(=O)O)C(=O)N[C@@H](CO)C(=O)O)[C@@H](C)O)C(C)C)[C@@H](C)CC)C(C)C)[C@@H](C)CC [LL37] | > 222.4 | 30.4 (1.0) µM | – | diminished activity | – | Minimal inhibitory concentration (MIC) (C. albicans ATCC 64124; [3]): >222.4 (0.0) µM; Minimal inhibitory concentration (MIC) (C. albicans ATCC 64124; [2]): >222.4 (0.0) µM; Minimal inhibitory concentration (MIC) (C. albicans HMV4C; [3]): >222.4 (0.0) µM
